Consider 2 compounds from ChEMBL document CHEMBL4387741, “Optimization of novel reversible Bruton's tyrosine kinase inhibitors identified using Tethering-fragment-based screens” (Bioorg Med Chem, 2019).

SMILES strings stand for the structures.

For assay [1], the target named is Activin receptor type-2B (Homo sapiens) (UniProt Q13705). In words: Inhibition of wild-type human ACVR2B (H169 to D504 residues) expressed in bacterial expression system at 10 uM by Kinomescan method relative to control.
The target in assay [2] is Activin receptor type-1-like (Homo sapiens) (UniProt P37023). Kind of assay: Inhibition of wild-type human ACVRL1 (L164 to Q503 residues) expressed in bacterial expression system at 10 uM by Kinomescan method relative to control.
Assay [3] deals with Cyclin-dependent kinase 5 (Homo sapiens) (UniProt Q00535). Kind of assay: Inhibition of wild-type human full length CDK5 (M1 to P292 residues) expressed in bacterial expression system at 10 uM by Kinomescan method relative to control.
Assay [4] deals with Ephrin type-A receptor 3 (Homo sapiens) (UniProt P29320). In words: Inhibition of wild-type human partial length EPHA3 (D604 to K889 residues) expressed in bacterial expression system at 10 uM by Kinomescan method relative to control.
Assay [5] has as its target Focal adhesion kinase 1 (Homo sapiens) (UniProt Q05397). In words: Inhibition of wild-type human partial length FAK (D402 to R696 residues) expressed in bacterial expression system at 10 uM by Kinomescan method relative to control.
The target in assay [6] is Tyrosine-protein kinase Fgr (Homo sapiens) (UniProt P09769). In words: Inhibition of wild-type human partial length FGR (L233 to T529 residues) expressed in bacterial expression system at 10 uM by Kinomescan method relative to control.
Assay [7] concerns the target Serine/threonine-protein kinase ICK (Homo sapiens) (UniProt Q9UPZ9). Kind of assay: Inhibition of wild-type human partial length ICK (M1 to P314 residues) expressed in mammalian expression system at 10 uM by Kinomescan method relative to control.
For assay [8], the system named is Mast/stem cell growth factor receptor Kit (Homo sapiens), P10721 [A829P]. Kind of assay: Inhibition of human partial length KIT A829P mutant (I571 to D952 residues) expressed in mammalian expression system at 10 uM by Kinomescan method relative to control.
Assay [9] deals with Mitogen-activated protein kinase kinase kinase 13 (Homo sapiens) (UniProt O43283). In words: Inhibition of wild-type human full length LZK (M1 to W966 residues) expressed in mammalian expression system at 10 uM by Kinomescan method relative to control.
In assay [10] the target is Mitogen-activated protein kinase kinase kinase 1 (Homo sapiens) (UniProt Q13233). In words: Inhibition of wild-type human partial length MAP3K1 (L1202 to W1512 residues) expressed in mammalian expression system at 10 uM by Kinomescan method relative to control.
For assay [11], the target named is Serine/threonine-protein kinase 38 (Homo sapiens) (UniProt Q15208). Kind of assay: Inhibition of wild-type human partial length NDR1 (N33 to E449 residues) expressed in mammalian expression system at 10 uM by Kinomescan method relative to control.
Assay [12] addresses Phosphatidylinositol 4,5-bisphosphate 3-kinase catalytic subunit beta isoform (Homo sapiens) (UniProt P42338). In words: Inhibition of wild-type human partial length PIK3CB (P118 to S1070 residues) expressed in mammalian expression system at 10 uM by Kinomescan method relative to control.
For assay [13], the target named is Receptor-interacting serine/threonine-protein kinase 2 (Homo sapiens) (UniProt O43353). Kind of assay: Inhibition of wild-type human partial length RIPK2 (M1 to K310 residues) expressed in bacterial expression system at 10 uM by Kinomescan method relative to control.
For assay [14], the target named is SNF-related serine/threonine-protein kinase (Homo sapiens) (UniProt Q9NRH2). Kind of assay: Inhibition of wild-type human partial length SNRK (M1 to E339 residues) expressed in mammalian expression system at 10 uM by Kinomescan method relative to control.
Assay [15] addresses Proto-oncogene tyrosine-protein kinase Src (Homo sapiens) (UniProt P12931). Kind of assay: Inhibition of wild-type human partial length SRC (L240 to L536 residues) expressed in bacterial expression system at 10 uM by Kinomescan method relative to control.
Assay [16] deals with Tyrosine-protein kinase ABL1 (Homo sapiens), P00519 [H396P]. In words: Inhibition of human non-phosphorylated ABL1 H396P mutant (S229 to K512 residues) expressed in mammalian expression system at 1 uM by Kinomescan method relative to control.
The target in assay [17] is BMP-2-inducible protein kinase (Homo sapiens) (UniProt Q9NSY1). In words: Inhibition of wild-type human partial length BIKE (S34 to N329 residues) expressed in bacterial expression system at 1 uM by Kinomescan method relative to control.
In assay [18] the target is Serine/threonine-protein kinase BRSK1 (Homo sapiens) (UniProt Q8TDC3). In words: Inhibition of wild-type human partial length BRSK1 (M1 to E754 residues) expressed in bacterial expression system at 1 uM by Kinomescan method relative to control.
For assay [19], the target named is Serine/threonine-protein kinase DCLK1 (Homo sapiens) (UniProt O15075). Kind of assay: Inhibition of wild-type human partial length DCAMKL1 (L270 to A662 residues) expressed in mammalian expression system at 1 uM by Kinomescan method relative to control.
Assay [20] concerns the target Tyrosine-protein kinase Fgr (Homo sapiens) (UniProt P09769). In words: Inhibition of wild-type human partial length FGR (L233 to T529 residues) expressed in bacterial expression system at 1 uM by Kinomescan method relative to control.
In assay [21] the target is Tyrosine-protein kinase FRK (Homo sapiens) (UniProt P42685). In words: Inhibition of wild-type human partial length FRK (A215 to F503 residues) expressed in bacterial expression system at 1 uM by Kinomescan method relative to control.
Assay [22] has as its target Mitogen-activated protein kinase 10 (Homo sapiens) (UniProt P53779). In words: Inhibition of wild-type human partial length JNK3 (V28 to Q422 residues) expressed in mammalian expression system at 1 uM by Kinomescan method relative to control.
Assay [23] deals with Serine/threonine-protein kinase LATS1 (Homo sapiens) (UniProt O95835). In words: Inhibition of wild-type human partial length LATS1 (Q678 to V1130 residues) expressed in bacterial expression system at 1 uM by Kinomescan method relative to control.
Assay [24] addresses Myosin light chain kinase 2, skeletal/cardiac muscle (Homo sapiens) (UniProt Q9H1R3). In words: Inhibition of wild-type human partial length MYLK2 (D258 to K570 residues) expressed in bacterial expression system at 1 uM by Kinomescan method relative to control.
Assay [25] addresses Serine/threonine-protein kinase PAK 2 (Homo sapiens) (UniProt Q13177). In words: Inhibition of wild-type human partial length PAK2 (P151 to R525 residues) expressed in bacterial expression system at 1 uM by Kinomescan method relative to control.
Assay [26] has as its target 1-phosphatidylinositol 3-phosphate 5-kinase (Homo sapiens) (UniProt Q9Y2I7). In words: Inhibition of wild-type human partial length PIKFYVE (F1512 to C2098 residues) expressed in mammalian expression system at 1 uM by Kinomescan method relative to control.
In assay [27] the target is Serine/threonine-protein kinase PRP4 homolog (Homo sapiens) (UniProt Q13523). In words: Inhibition of wild-type human partial length PRP4 (D657 to I1007 residues) expressed in bacterial expression system at 1 uM by Kinomescan method relative to control.

The inhibition is the change of the read-out against control, counted positive when it falls. A higher inhibition goes with strong suppression.

Tyrosine-protein kinase Fgr (Homo sapiens), sequence (P09769 2-529 limits assumed): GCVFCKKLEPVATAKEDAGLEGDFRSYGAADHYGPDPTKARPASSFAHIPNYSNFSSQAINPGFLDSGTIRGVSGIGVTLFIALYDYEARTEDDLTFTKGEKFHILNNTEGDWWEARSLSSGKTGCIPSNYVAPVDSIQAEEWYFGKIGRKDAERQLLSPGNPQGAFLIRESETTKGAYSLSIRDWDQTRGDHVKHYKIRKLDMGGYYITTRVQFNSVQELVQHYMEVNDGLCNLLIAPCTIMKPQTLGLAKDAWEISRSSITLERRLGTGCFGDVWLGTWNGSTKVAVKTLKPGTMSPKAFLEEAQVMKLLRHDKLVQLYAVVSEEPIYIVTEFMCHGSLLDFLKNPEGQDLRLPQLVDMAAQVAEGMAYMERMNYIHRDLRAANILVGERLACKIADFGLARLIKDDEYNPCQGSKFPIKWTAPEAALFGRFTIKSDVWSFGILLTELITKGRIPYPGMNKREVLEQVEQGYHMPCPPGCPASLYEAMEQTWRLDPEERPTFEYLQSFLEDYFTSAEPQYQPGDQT
Mitogen-activated protein kinase 10 (Homo sapiens), sequence (P53779 whole entry, the tested form may be a part): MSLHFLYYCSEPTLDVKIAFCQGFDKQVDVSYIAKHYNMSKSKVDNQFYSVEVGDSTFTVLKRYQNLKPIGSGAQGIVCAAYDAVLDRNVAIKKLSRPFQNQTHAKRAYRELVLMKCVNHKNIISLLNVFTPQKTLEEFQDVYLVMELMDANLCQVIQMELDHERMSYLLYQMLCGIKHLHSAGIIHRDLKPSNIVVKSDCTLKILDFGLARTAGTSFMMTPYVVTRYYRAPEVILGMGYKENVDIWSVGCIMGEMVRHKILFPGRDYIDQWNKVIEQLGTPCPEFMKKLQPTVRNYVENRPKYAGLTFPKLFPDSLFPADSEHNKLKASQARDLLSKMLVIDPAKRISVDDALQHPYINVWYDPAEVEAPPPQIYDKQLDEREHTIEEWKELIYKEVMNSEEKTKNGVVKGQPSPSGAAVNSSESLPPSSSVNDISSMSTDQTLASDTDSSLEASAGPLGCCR
Focal adhesion kinase 1 (Homo sapiens), sequence (Q05397 2-1052 limits assumed): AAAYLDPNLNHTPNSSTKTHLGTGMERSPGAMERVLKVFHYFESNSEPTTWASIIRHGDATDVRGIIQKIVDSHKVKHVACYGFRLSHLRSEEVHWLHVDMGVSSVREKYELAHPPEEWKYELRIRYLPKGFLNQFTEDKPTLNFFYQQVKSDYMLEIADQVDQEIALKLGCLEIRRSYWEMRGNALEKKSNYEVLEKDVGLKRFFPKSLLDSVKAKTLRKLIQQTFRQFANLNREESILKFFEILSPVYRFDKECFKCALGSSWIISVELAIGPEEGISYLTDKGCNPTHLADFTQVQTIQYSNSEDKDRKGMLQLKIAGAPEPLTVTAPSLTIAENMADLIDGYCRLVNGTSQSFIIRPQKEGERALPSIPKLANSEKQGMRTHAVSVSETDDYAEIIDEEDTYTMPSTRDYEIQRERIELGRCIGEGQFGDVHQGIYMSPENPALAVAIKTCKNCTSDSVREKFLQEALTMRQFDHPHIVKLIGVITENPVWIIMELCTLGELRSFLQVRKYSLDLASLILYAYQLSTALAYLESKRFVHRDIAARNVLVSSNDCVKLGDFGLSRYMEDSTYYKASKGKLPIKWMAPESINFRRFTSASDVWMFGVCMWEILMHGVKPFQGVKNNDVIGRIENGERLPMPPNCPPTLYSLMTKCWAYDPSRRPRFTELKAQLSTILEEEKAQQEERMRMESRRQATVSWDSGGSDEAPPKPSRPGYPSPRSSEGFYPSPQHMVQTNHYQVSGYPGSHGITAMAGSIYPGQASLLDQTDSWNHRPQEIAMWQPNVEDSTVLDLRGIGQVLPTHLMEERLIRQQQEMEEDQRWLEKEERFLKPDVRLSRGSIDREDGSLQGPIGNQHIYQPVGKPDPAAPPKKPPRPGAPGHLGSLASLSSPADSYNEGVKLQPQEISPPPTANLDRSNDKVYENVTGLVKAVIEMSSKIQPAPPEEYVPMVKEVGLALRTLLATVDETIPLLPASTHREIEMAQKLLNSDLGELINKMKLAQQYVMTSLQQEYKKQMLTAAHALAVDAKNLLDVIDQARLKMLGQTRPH
Myosin light chain kinase 2, skeletal/cardiac muscle (Homo sapiens), sequence (Q9H1R3 whole entry, the tested form may be a part): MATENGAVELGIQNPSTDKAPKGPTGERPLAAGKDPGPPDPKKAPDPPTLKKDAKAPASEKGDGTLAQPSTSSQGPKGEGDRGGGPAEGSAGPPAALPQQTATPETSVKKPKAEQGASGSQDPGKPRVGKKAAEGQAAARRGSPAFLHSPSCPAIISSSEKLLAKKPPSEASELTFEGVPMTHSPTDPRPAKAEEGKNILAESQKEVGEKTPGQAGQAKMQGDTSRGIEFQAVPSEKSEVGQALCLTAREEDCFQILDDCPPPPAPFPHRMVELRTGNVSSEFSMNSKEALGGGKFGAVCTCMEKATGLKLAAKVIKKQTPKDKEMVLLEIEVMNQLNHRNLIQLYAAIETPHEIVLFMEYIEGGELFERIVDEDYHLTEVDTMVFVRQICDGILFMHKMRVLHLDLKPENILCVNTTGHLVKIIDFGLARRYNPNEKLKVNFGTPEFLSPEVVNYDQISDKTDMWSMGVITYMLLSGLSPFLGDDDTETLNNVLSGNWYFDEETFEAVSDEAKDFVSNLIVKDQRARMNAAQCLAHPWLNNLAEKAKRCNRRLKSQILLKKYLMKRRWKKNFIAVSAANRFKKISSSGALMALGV
1-phosphatidylinositol 3-phosphate 5-kinase (Homo sapiens), sequence (Q9Y2I7 whole entry, the tested form may be a part): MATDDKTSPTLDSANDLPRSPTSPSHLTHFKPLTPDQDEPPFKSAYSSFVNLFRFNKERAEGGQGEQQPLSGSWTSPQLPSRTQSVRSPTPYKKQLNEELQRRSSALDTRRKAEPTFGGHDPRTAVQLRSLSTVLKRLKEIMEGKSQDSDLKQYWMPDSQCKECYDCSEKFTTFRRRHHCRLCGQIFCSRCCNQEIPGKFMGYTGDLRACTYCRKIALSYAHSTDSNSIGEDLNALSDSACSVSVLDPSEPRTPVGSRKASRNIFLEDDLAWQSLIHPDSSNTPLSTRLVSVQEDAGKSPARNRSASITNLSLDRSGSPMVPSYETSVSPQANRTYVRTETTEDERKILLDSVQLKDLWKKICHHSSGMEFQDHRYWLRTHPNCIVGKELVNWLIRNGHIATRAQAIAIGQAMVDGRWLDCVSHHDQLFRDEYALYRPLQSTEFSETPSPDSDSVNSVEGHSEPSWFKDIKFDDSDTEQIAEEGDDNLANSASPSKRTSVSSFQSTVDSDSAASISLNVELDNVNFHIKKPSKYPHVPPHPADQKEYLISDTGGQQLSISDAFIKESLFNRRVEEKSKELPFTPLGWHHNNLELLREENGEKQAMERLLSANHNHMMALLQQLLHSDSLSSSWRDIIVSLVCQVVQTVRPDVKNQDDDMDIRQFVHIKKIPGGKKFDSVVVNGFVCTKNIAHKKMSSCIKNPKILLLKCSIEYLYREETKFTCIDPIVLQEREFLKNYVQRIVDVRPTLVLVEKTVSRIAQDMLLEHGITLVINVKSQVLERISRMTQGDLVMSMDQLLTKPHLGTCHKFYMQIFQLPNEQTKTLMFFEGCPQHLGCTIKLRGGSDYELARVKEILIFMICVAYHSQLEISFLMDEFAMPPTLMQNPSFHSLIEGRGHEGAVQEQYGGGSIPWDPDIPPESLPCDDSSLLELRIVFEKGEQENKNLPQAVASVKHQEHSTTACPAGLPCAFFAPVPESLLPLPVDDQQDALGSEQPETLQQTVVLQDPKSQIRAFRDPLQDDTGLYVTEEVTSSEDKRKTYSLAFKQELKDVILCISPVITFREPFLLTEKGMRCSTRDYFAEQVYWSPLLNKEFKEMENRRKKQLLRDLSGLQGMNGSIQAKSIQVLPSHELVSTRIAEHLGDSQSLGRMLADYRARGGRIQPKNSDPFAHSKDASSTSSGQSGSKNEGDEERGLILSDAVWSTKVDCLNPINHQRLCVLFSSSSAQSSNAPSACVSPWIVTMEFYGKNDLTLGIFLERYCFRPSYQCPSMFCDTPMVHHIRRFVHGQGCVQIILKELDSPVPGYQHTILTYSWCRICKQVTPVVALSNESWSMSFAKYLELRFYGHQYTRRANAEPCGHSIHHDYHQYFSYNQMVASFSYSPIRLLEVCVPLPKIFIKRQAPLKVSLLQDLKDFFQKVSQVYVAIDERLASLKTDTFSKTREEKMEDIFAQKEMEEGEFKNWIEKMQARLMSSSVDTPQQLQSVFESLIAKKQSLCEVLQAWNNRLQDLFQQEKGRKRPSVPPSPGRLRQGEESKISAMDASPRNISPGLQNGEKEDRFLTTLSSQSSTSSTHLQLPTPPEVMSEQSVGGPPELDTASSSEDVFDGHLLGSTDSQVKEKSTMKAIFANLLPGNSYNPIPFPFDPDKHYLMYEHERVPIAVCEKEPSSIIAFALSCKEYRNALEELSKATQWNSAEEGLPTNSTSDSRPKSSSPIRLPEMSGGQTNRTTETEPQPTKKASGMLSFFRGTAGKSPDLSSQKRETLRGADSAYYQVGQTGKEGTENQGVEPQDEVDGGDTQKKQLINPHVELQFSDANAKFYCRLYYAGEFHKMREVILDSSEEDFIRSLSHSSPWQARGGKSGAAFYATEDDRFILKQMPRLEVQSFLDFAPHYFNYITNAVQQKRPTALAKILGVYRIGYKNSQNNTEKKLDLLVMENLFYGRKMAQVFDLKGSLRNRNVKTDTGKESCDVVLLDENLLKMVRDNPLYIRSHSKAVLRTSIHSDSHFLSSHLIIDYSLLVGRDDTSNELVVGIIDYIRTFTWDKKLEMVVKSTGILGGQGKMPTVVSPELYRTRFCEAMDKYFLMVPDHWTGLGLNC
Cyclin-dependent kinase 5 (Homo sapiens), sequence (Q00535 whole entry, looked up, the tested form may be a part): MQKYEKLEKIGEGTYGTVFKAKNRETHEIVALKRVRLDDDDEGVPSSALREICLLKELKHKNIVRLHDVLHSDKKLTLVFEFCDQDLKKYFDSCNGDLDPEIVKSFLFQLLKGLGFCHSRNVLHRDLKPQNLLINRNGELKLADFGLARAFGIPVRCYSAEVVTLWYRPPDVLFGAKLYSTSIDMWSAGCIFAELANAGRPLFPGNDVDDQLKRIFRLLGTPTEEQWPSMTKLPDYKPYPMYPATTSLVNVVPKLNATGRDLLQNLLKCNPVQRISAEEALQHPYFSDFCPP

`O=C(Nc1cccc([C@H]2CCCN(c3ncnc4[nH]ccc34)C2)c1)Nc1ccccc1N1CCCC1`: the inhibition in assay [1] stood at 100%; in assay [2], 100%; in assay [3], 92%; in assay [4], 74%; in [5], 90%; in assay [6], 62%. Besides, the inhibition in assay [7] was determined as 100%; in [8], 15%; in assay [9], 100%; in assay [10], 39%; in assay [11] it was 57%; in [12], 94%. In addition, the inhibition in [13] turned out to be 100%; in assay [14], 86%; in assay [15], 80%.
Turning to `O=C(Nc1cccc([C@@H]2CN(c3ncnc4[nH]ccc34)CCN2CCO)c1)Nc1c(F)cccc1N1CCCC1`, the inhibition in assay [16] was 96%; in assay [17], 39%; in assay [18], 100%; in assay [19] it was 36%; in assay [20] it was 77%; in assay [21] it was 99%. In addition, the inhibition was 97% in assay [22]; 52% in [23]; 100% in assay [24]; 87% in [25]; 91% in [26]; 92% in assay [27].
